Data on 26 molecules can be found in patent publication US12612380B2, “Non-lysosomal glucosylceramidase inhibitors and uses thereof” (ALECTOS THERAPEUTICS INC., priority 2019, dated 2026).

Structures are written as SMILES.

For one test, the target named is T1, GBA2 (Homo sapiens, UniProt Q9HCG7).
T1 sequence (Q9HCG7 1-927): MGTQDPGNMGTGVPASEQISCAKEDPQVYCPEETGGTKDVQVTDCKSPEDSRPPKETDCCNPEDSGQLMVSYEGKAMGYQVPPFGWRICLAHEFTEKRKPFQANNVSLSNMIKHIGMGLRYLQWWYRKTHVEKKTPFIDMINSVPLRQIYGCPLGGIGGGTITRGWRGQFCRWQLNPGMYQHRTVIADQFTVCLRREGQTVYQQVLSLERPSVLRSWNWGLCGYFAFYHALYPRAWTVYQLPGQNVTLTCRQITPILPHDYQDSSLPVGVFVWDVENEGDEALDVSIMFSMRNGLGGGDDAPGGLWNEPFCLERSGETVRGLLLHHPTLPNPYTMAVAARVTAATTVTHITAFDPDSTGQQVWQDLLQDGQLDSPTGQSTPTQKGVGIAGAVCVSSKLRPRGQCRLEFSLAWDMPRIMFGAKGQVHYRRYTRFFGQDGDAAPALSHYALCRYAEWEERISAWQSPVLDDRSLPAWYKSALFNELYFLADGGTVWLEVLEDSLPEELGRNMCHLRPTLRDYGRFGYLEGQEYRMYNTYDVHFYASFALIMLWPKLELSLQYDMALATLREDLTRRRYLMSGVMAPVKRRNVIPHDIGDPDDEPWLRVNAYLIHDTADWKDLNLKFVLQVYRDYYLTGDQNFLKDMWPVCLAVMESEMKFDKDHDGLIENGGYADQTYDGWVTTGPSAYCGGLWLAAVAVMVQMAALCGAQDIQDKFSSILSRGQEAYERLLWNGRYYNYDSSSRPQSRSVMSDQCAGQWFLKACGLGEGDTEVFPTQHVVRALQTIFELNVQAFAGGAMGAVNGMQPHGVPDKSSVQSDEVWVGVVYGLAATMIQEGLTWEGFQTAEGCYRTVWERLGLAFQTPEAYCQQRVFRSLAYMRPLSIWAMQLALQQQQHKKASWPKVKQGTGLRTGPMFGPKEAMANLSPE
The test can be described thus: Determination of IC50 values for inhibition of GBA2 in cell lysate. Set-up: host or cells: HEK293T (lentiviral transduction, puromycin selection); used as cellular homogenate.
Conditions: not given
Format: biochemical. An excerpt:
Assay for Determination of IC50 Values for Inhibition of GBA2 in Cell Lysate
Stable GBA2-expressing HEK293T cells were generated as follows. The PCR-amplified human GBA2 (GBA2 nucleotide accession number BC011363) using the following primers: Sense 5′---CGCAAATGGGCGGTAGGCGTG (SEQ ID NO:2)---3′ and antisense 5′---TAGTCAGCCATGGGGCGGAGA (SEQ ID NO:3)---3′) was cloned into pLenti-GIII-CMV by ABM Inc. The correctness of the construct was verified by sequencing. Lentivirus particles containing GBA2 in the pLenti-GIII-CMV plasmid were prepared using a third Generation Virus Packaging Mix (ABM cat #LV053-G074) in HEK293T cells and supplied as a virus particle suspension. The virus suspension was used for infection of HEK293T cells. Cell populations stably expressing human GBA2 were selected using puromycin for several weeks as determined by activity assays and western blot.
Various concentrations of test compounds were prepared in DMSO and then diluted into buffer consisting of 100 mM citric acid, 200 mM disodium phosphate with 1% v/v C10E6, pH 5.5. Cellular homogenates (0.25 mg/mL) of the stable HEK293T-overexpressing GBA2 cell line were preincubated for 10 min on ice with an inhibitor of GCase (20 μM (6R,7R,8S)-8-ethyl-4-azaspiro[2.5]octane-6,7-diol). The reaction solution consisted of 20 μL of 750 μM 4-methylumbelliferone-β-D glucopyranoside in 5% DMSO in the same buffer, 20 μL of GBA2-cellular homogenate pre-treated with (6R,7R,8S)-8-ethyl-4-azaspiro[2.5]octane-6,7-diol and 20 μL of various concentrations of test compound in 10% DMSO in the same buffer. The final concentrations in the reaction were 0.083 mg/mL GBA2-cellular homogenate, 250 μM 4-methylumbelliferone-β-D glucopyranoside, and various concentrations of inhibitor. The inhibitor and GBA2-cellular homogenate were preincubated together for 5 min at 37° C. The reaction was initiated by addition of substrate and allowed to proceed for 20 min at 37° C. to assess GBA2 activity. Reactions were stopped by the addition of an equal volume (60 μL) of 0.5 M NaOH, 0.3 M glycine, pH 10.5. Fluorescence was measured on a Biotek Synergy H4 plate reader at wavelengths of 365 nm for excitation and 450 nm for emission. Incubations without added enzyme or added inhibitors were used to define no enzyme activity and maximal enzyme activity, respectively. IC50 values were determined by fitting the data to a log[inhibitor concentration] versus response curve using GraphPad Prism. IC50 values were calculated as the concentration of inhibitor required to inhibit GBA2 activity by 50%.
For `C[C@@H]1[C@@H](O)[C@H](O)[C@@H](O)CN1CCc1ccccc1` [Example 35, (2R,3R,4R,5S)-2-methyl-1-phenethylpiperidine-3,4,5-triol], the 50% inhibitory concentration (IC50) – broadly, the midpoint of a concentration-inhibition curve – lay in the range of 100 to 1000 nM.

Consider `Cc1ccccc1CCN1C[C@H](O)[C@@H](O)[C@H](O)[C@H]1C` [Example 36, (2R,3R,4R,5S)-2-methyl-1-(2-methylphenethyl)piperidine-3,4,5-triol], for which the IC50 lay in the range of 100 to 1000 nM.

As to `COc1ccccc1CCN1C[C@H](O)[C@@H](O)[C@H](O)[C@H]1C` [Example 37, (2R,3R,4R,5S)-1-(2-methoxyphenethyl)-2-methylpiperidine-3,4,5-triol], the IC50 was in the range of 100 to 1000 nM.

On to `C[C@@H]1[C@@H](O)[C@H](O)[C@@H](O)CN1CCc1ccccc1F` [Example 38, (2R,3R,4R,5S)-1-(2-fluorophenethyl)-2-methylpiperidine-3,4,5-triol], for which the concentration for half-maximal inhibition (IC50) lay in the range of 100 to 1000 nM.

With `C[C@@H]1[C@@H](O)[C@H](O)[C@@H](O)CN1CCc1ccccc1Cl` [Example 39, (2R,3R,4R,5S)-1-(2-chlorophenethyl)-2-methylpiperidine-3,4,5-triol], the IC50 was in the range of 100 to 1000 nM.

In the case of `C[C@@H]1[C@@H](O)[C@H](O)[C@@H](O)CN1CCc1cccc(F)c1F` [Example 40, (2R,3R,4R,5S)-1-(2,3-difluorophenethyl)-2-methylpiperidine-3,4,5-triol], the half-inhibitory concentration (IC50) lay in the range of 100 to 1000 nM.

Take `C[C@@H]1[C@@H](O)[C@H](O)[C@@H](O)CN1CCc1ccc(F)cc1F` [Example 41, (2R,3R,4R,5S)-1-(2,4-difluorophenethyl)-2-methylpiperidine-3,4,5-triol]: the IC50 was 100 to 1000 nM.

With `C[C@@H]1[C@@H](O)[C@H](O)[C@@H](O)CN1CCc1cc(F)ccc1F` [Example 42, (2R,3R,4R,5S)-1-(2,5-difluorophenethyl)-2-methylpiperidine-3,4,5-triol], the concentration for half-maximal inhibition (IC50) was < 100 nM.

Turning to `C[C@@H]1[C@@H](O)[C@H](O)[C@@H](O)CN1CCc1ccc(F)c(F)c1` [Example 43, (2R,3R,4R,5S)-1-(3,4-difluorophenethyl)-2-methylpiperidine-3,4,5-triol], the half-maximal inhibitory concentration (IC50) is 100 to 1000 nM.

Regarding `COc1ccc(CCN2C[C@H](O)[C@@H](O)[C@H](O)[C@H]2C)c(F)c1` [Example 44, (2R,3R,4R,5S)-1-(2-fluoro-4-methoxyphenethyl)-2-methylpiperidine-3,4,5-triol], the half-inhibitory concentration (IC50) was 100 to 1000 nM.

Consider `C[C@@H]1[C@@H](O)[C@H](O)[C@@H](O)CN1CCc1ccc(Cl)cc1F` [Example 46, (2R,3R,4R,5S)-1-(4-chloro-2-fluorophenethyl)-2-methylpiperidine-3,4,5-triol], for which the IC50 lay in the range of 100 to 1000 nM.

`C[C@@H]1[C@@H](O)[C@H](O)[C@@H](O)CN1CCc1cc(Cl)ccc1F` [Example 47, (2R,3R,4R,5S)-1-(5-chloro-2-fluorophenethyl)-2-methylpiperidine-3,4,5-triol]: the half-maximal inhibitory concentration (IC50) was < 100 nM.

Turning to `C[C@@H]1[C@@H](O)[C@H](O)[C@@H](O)CN1CCc1c(F)cccc1F` [Example 48, (2R,3R,4R,5S)-1-(2,6-difluorophenethyl)-2-methylpiperidine-3,4,5-triol], the concentration for half-maximal inhibition (IC50) was < 100 nM.

Turning to `C=C(C)c1cc(F)c(CCN2C[C@H](O)[C@@H](O)[C@H](O)[C@H]2C)c(F)c1` [Example 50, (2R,3R,4R,5S)-1-(2,6-difluoro-4-(prop-1-en-2-yl)phenethyl)-2-methylpiperidine-3,4,5-triol], the IC50 is < 100 nM.

`C[C@@H]1[C@@H](O)[C@H](O)[C@@H](O)CN1CCc1ccc(OC2CCCOC2)cc1` (stereo partly drawn) [Example 62, (2R,3R,4R,5S)-2-methyl-1-(4-((tetrahydro-2H-pyran-3-yl)oxy)phenethyl)piperidine-3,4,5-triol]: the concentration for half-maximal inhibition (IC50) is < 100 nM.

With `C[C@@H]1[C@@H](O)[C@H](O)[C@@H](O)CN1CCc1ccc(OC2CCOCC2)cc1` [Example 63, (2R,3R,4R,5S)-2-methyl-1-(4-((tetrahydro-2H-pyran-4-yl)oxy)phenethyl)piperidine-3,4,5-triol], the concentration for half-maximal inhibition (IC50) is < 100 nM.

In the case of `C[C@@H]1[C@@H](O)[C@H](O)[C@@H](O)CN1CCc1ccc(OCC2CCOC2)cc1` (stereo partly drawn) [Example 65, (2R,3R,4R,5S)-2-methyl-1-(4-((tetrahydrofuran-3-yl)methoxy)phenethyl)piperidine-3,4,5-triol], the half-maximal inhibitory concentration (IC50) is < 100 nM.

As for `C[C@@H]1[C@@H](O)[C@H](O)[C@@H](O)CN1CCc1ccc2c(c1)OC(F)(F)O2` [Example 72, (2R,3R,4R,5S)-1-(2-(2,2-difluorobenzo[d][1,3]dioxol-5-yl)ethyl)-2-methylpiperidine-3,4,5-triol], the IC50 was < 100 nM.

The same test, now with this note: cellular homogenate of HEK293T cells overexpressing human GBA2, 250 μM 4-methylumbelliferone-β-D glucopyranoside, pH 5.5, 37° C., GCase inhibitor present; read-out: GBA2 IC50.
For the molecule `C[C@@H]1[C@@H](O)[C@H](O)[C@@H](O)CN1CCC12CC3CC(CC(C3)C1)C2` [Example 33, (2R,3R,4R,5S)-1-((2-adamantan-1-yl)ethyl)-2-methylpiperidine-3,4,5-triol], the 50% inhibitory concentration (IC50) was < 100 nM.

On to `C[C@@H]1[C@@H](O)[C@H](O)[C@@H](O)CN1CCCC1CCCCC1` [Example 34, (2R,3R,4R,5S)-1-(3-cyclohexylpropyl)-2-methylpiperidine-3,4,5-triol], for which the half-inhibitory concentration (IC50) was < 100 nM.

With `C[C@@H]1[C@@H](O)[C@H](O)[C@@H](O)CN1CCc1ccc(OC2CCOC2)cc1` (stereo partly drawn) [Example 61, (2R,3R,4R,5S)-2-methyl-1-(4-((tetrahydrofuran-3-yl)oxy)phenethyl)piperidine-3,4,5-triol], the IC50 is < 100 nM.

On to `C[C@@H]1[C@@H](O)[C@H](O)[C@@H](O)CN1CCc1ccc(Oc2ccccc2)cc1` [Example 64, (2R,3R,4R,5S)-2-methyl-1-(4-phenoxyphenethyl)piperidine-3,4,5-triol], for which the 50% inhibitory concentration (IC50) was < 100 nM.

Turning to `C[C@@H]1[C@@H](O)[C@H](O)[C@@H](O)CN1C[C@H](C)c1ccccc1` [Example 66, (2R,3R,4R,5S)-2-methyl-1-((R)-2-phenylpropyl)piperidine-3,4,5-triol], the IC50 was 100 to 1000 nM.

Consider `C[C@H](CN1C[C@H](O)[C@@H](O)[C@H](O)[C@H]1C)c1ccccc1` [Example 67, (2R,3R,4R,5S)-2-methyl-1-((S)-2-phenylpropyl)piperidine-3,4,5-triol], for which the IC50 was 100 to 1000 nM.

For the molecule `C[C@@H]1[C@@H](O)[C@H](O)[C@@H](O)CN1CCc1ccc(-c2ccccc2)cc1` [Example 68, (2R,3R,4R,5S)-1-(2-([1,1′-biphenyl]-4-yl)ethyl)-2-methylpiperidine-3,4,5-triol], the IC50 is < 100 nM.

For the molecule `C[C@@H]1[C@@H](O)[C@H](O)[C@@H](O)CN1CCc1c(F)cc(-c2ccccc2)cc1F` [Example 69, (2R,3R,4R,5S)-1-(2-(3,5-difluoro-[1,1′-biphenyl]-4-yl)ethyl)-2-methylpiperidine-3,4,5-triol], the IC50 is < 100 nM.
